Consider four molecules from US4999374A, “Veterinary treatment” (priority 1987, dated 1991).

In test [1] the test system is T. hyodysenteriae. As to the kind of experiment: MIC of M139603 against thirteen T. hyodysenteriae isolates vs salinomycin and dimetridazole (Example 1, Table 1). The class given is cell-based, Treponema hyodysenteriae. The conditions noted are these: Brachyspira hyodysenteriae. As to the method:
The minimum inhibitory concentration of M139603 was tested in parallel with dimetridazole (May & Baker) and the growth-promoting polyether antibiotic salinomycin (Hoechst) against thirteen strains of T. hyodysenteriae.

Test [2] concerns T. hyodysenteriae. As to the kind of experiment: Comparative efficacy of M139603 and monensin in experimentally infected mice (Example 2, Table 2). The class given is in vivo, mice (strain MF-1). The settings on record: for Mean (log10) viable treponemes per gram caecum & contents / Viable treponemes per gram caecum & contents: 5 days; for Mean (log10) viable treponemes per gram caecum & contents: group mean; for Viable treponemes per gram caecum & contents: individual mice. The source says: (§1) The infection leads to varying degrees of caecitis, the lesions of which are apparent in animals killed on or about the sixth day post-infection. Caecal specimens examined by bacteriological culture techniques applicable for enumeration of organisms reveal the presence of high populations of T.hyodysenteriae. This disease-model was used in experiments to compare the efficacy of M139603 with that of salinomycin, lasalocid and monensin in suppressing the infection.
(§2) In this study, the efficacy of M139603 was tested at 25 ppm feed and that of monensin (Eli Lilly) at 50 or 100 ppm. Groups of infected mice, five per group, were offered the drugs in the feed on five continuous days before killing. Caecal materials were subjected to bacteriological examination to enumerate the populations of viable treponemes per gram of material. […] The group mean in respect of the unmedicated groups was 7.9 cfu/g.

The test system of test [3] is T. hyodysenteriae. The experiment in a line: Comparative efficacy of M139603 and salinomycin in experimentally infected mice (Example 3, Table 3). It counts as in vivo, mice (strain MF-1). The conditions noted are these: for Mean (log10) viable treponemes per gram caecum & contents / Viable treponemes per gram caecum & contents: 5 days; for Mean (log10) viable treponemes per gram caecum & contents: group mean; for Viable treponemes per gram caecum & contents: individual mice.
Source text: as §1, §2
In this study, the efficacy of M139603 was tested at 30 ppm and that of salinomycin at 30, 40 or 60 ppm feed. The mouse-groups and test-procedureswere simi-ar to those applied under Example 2 above.

Test [4] relates to T. hyodysenteriae. As to the kind of experiment: Comparative efficacy of M139603 and lasalocid in experimentally infected mice (Example 4, Table 4). It counts as in vivo, mice (strain MF-1). The settings on record: for Mean (log10) viable treponemes per gram caecal contents / Viable treponemes per gram caecal contents: 5 days; for Mean (log10) viable treponemes per gram caecal contents: group mean (table); for Viable treponemes per gram caecal contents: individual mice.
Source text: as §1, §2
In this study, the efficacy of M139603 was tested at 20 ppm feed and that of lasalocid (Hoffman la Roche) at 20, 40 and 80 ppm. The test procedures were similar to those above except for the size of the inoculum of T.hyodysenteriae (1.2×10^7 cfu) used in infecting each mouse. […] The mean (log10) counts of viable treponemes found in the caecal contents of the various groups were: 2.5 cfu/g caecum (139603 at 20 ppm), 7.35 cfu (lasalocid at 20 ppm), 7.45 cfu (lasalocid at 40 ppm), 3.81 cfu (lasalocid at 80 ppm) and 8.50 cfu (unmedicated control).

Several values for one entry are separate records, joined by “and”; a condition that tells them apart may be missing. Equal values may be shown once. Read-outs that look alike come from different tables or passages of the source.

As a reminder, the MIC is the lowest concentration that inhibits growth of the organism. With `Cc1ncc([N+](=O)[O-])n1C` [Dimetridazole, dimetridazole], the MIC in test [1] (isolate B78, read-out: MIC) was found to be 3 µg/mL; in test [1] (isolate S82/6, read-out: MIC), 30 µg/mL; in test [1] (isolate S82/7, read-out: MIC), 30 µg/mL; in test [1] (isolate S83/1, read-out: MIC), 30 µg/mL; in test [1] (isolate S83/2, read-out: MIC), 3 µg/mL; in test [1] (isolate S83/5, read-out: MIC), 3 µg/mL. Besides, the MIC in test [1] (isolate S85/1, read-out: MIC) was 30 µg/mL; in test [1] (isolate S85/2, read-out: MIC), 10 µg/mL; in test [1] (isolate S85/3, read-out: MIC) it was 10 µg/mL; in test [1] (isolate S85/8, read-out: MIC) it was 3 µg/mL; in test [1] (isolate S85/9, read-out: MIC), 5 µg/mL; in test [1] (isolate S86/1, read-out: MIC) it was < 0.5 µg/mL. The MIC in test [1] (isolate S86/2, read-out: MIC) was 10 µg/mL; in test [1] (mean of 13 strains (table), read-out: Mean MIC), 12.9 µg/mL.
For the molecule `CC[C@@]1([C@@H]2O[C@@H]([C@H]3O[C@@](O)(CO)[C@H](C)C[C@@H]3C)C[C@@H]2C)CC[C@H]([C@]2(C)CC[C@]3(C[C@H](O)[C@@H](C)[C@@H]([C@@H](C)[C@@H](OC)[C@H](C)C(=O)O)O3)O2)O1` [Monensin, monensin], in test [2] (50 ppm feed), the “Animals yielding high populations of viable treponema” value is reported as “four out of five”; the Suppression of infection entry is reported as “ineffective”; the “Mean (log10) viable treponemes per gram caecum & contents” value was determined as 5.2 log10 per gram; the “Viable treponemes per gram caecum & contents” value is 1.74 × 10^8 per gram and 2.90 × 10^7 per gram and 1.0 × 10^5 per gram and negative and 2.0 × 10^5 per gram. Further, the “Populations of viable treponema (range)” value in test [2] (50 ppm feed, four of five animals) is recorded as 1.0×10^5 -1.7×10^8 cfu/g. For the same molecule, the “Group mean (log10) viable treponema” value in test [2] (50 ppm feed, log10) was 5.2 cfu/g caecum. In test [2] (100 ppm feed), the Suppression of infection result was “suppressed the infection” and the “Mean (log10) viable treponemes per gram caecum & contents” value stood at 0 log10 per gram. In addition, the “Viable treponemes per gram caecum & contents” value in test [2] (100 ppm feed, limit of detection <1.0 × 10^2) was “negative”.
With `CC[C@@H](C(=O)[C@@H](C)[C@@H](O)[C@H](C)[C@@H]1O[C@@H]([C@@H](CC)C(=O)O)CC[C@@H]1C)[C@H]1O[C@]2(C=C[C@@H](O)[C@]3(CC[C@@](C)([C@H]4CC[C@](O)(CC)[C@H](C)O4)O3)O2)[C@H](C)C[C@@H]1C` [Salinomycin, salinomycin], the Suppression of infection result in test [3] (30, 40 or 60 ppm feed) is “failed to do so, even at 60 ppm”. Further, the entries for the “Mean (log10) viable treponemes per gram caecum & contents” value in test [3] (30 ppm feed), in test [3] (40 ppm feed) and in test [3] (60 ppm feed) were 3.86 log10 per gram, 6.03 log10 per gram and 5.52 log10 per gram, respectively. The “Viable treponemes per gram caecum & contents” value in test [3] (30 ppm feed) is “negative and 6.0 × 10^6 per gram and 5.4 × 10^5 per gram”; in test [3] (40 ppm feed), 6.0 × 10^6 per gram and 1.8 × 10^6 per gram and 1.6 × 10^5 per gram and 4.3 × 10^5 per gram; in test [3] (60 ppm feed), 1.3 × 10^7 per gram and 2.0 × 10^4 per gram and 1.0 × 10^6 per gram and 1.0 × 10^4 per gram and 1.5 × 10^6 per gram. The MIC in test [1] (isolate B78) was 1 µg/mL; in test [1] (isolate S82/6) it was 0.75 µg/mL; in test [1] (isolate S82/7), 0.75 µg/mL; in test [1] (isolate S83/1), 0.75 µg/mL; in test [1] (isolate S83/2), 1 µg/mL; in test [1] (isolate S83/5), < 0.1 µg/mL. In addition, the MIC in test [1] (isolate S85/1) was 0.75 µg/mL; in test [1] (isolate S85/2), 1 µg/mL; in test [1] (isolate S85/3), 0.75 µg/mL; in test [1] (isolate S85/8) it was 0.75 µg/mL; in test [1] (isolate S85/9), 0.5 µg/mL; in test [1] (isolate S86/1), < 0.1 µg/mL. The minimum inhibitory concentration (MIC) in test [1] (isolate S86/2) stood at 0.75 µg/mL; in test [1] (read-out: Mean MIC, mean of 13 strains (table)), 0.68 µg/mL.
Turning to `CC[C@@H](C(=O)[C@@H](C)[C@@H](O)[C@H](C)CCc1ccc(C)c(O)c1C(=O)O)[C@H]1O[C@](CC)([C@H]2CC[C@](O)(CC)[C@H](C)O2)C[C@@H]1C` [Lasalocid, lasalocid], the “Mean (log10) viable treponemes per gram caecal contents” value is on record as 7.35 log10 per gram in test [4] (20 ppm feed), 7.45 log10 per gram in test [4] (40 ppm feed) and 3.81 log10 per gram in test [4] (80 ppm feed). Besides, the “Viable treponemes per gram caecal contents” value in test [4] (20 ppm feed) is 3.2 × 10^8 per gram and 1.1 × 10^4 per gram and 2.9 × 10^7 per gram and 1.7 × 10^8 per gram; in test [4] (40 ppm feed), 3.0 × 10^ 6 per gram and 1.4 × 10^8 per gram and 2.1 × 10^8 per gram and 1.7 × 10^7 per gram and 1.2 × 10^7 per gram; in test [4] (80 ppm feed), 4.0 × 10^4 per gram and 0 per gram and 1.0 × 10^6 per gram and 1.3 × 10^5 per gram and 2.3 × 10^3 per gram. Also, the “Mean (log10) count of viable treponemes in caecal contents” value in test [4] (20 ppm feed) came out at 7.35 cfu/g caecum; in test [4] (40 ppm feed), 7.45 cfu/g caecum; in test [4] (80 ppm feed) it was 3.81 cfu/g caecum.
